Experimental findings from US10413632B2, “Cement products and methods of making and using the same” (Pioneer Surgical Technology, Inc., priority 2007, dated 2019) are described below.

The structures appear in SMILES notation.

The text on the data set: The side chain amino groups of certain amino acid can serve as nucleophiles for the Michael addition to enones. Generally, amino acids are flaky or crystalline solids at room temperature, thus, they should be dissolved in a liquid to effectively participate in the set reaction.
Take `N[C@@H](CS)C(=O)O` [CYS, L-cysteine]: the “solubility (w/w) in DAB” value came to 19.5% and the “solubility (w/w) in PEI” value was found to be 18.2%.

`Nc1cc(O)nc(N)n1` [DAHP, 2,4-diamino-6-hydroxypyrimidine]: the “solubility (w/w) in PEI” value is 13.8%. On to `Nc1nc(N)c2nc[nH]c2n1` [DAP, diaminopurine], for which the “solubility (w/w) in PEI” value is reported as 18.8%. Regarding `NCCCC[C@H](N)C(=O)O` [LYS, L-Lysine], the “solubility (w/w) in DAB” value is 16.1%.

`N[C@@H](Cc1ccccc1)C(=O)O` [PHE, L-phenylalanine]: the “solubility (w/w) in DAB” value is 28% and the “solubility (w/w) in PEI” value amounted to 61.24%. As to `N[C@@H](Cc1c[nH]c2ccccc12)C(=O)O` [TRP, L-Tryptophan], the “solubility (w/w) in DAB” value is 29.4% and the “solubility (w/w) in PEI” value is recorded as 46.46%.
